Experimental findings from patent publication US11590116B2 (THERAVANCE BIOPHARMA R&D IP, LLC, priority 2019, dated 2023) are described below.

Assay [1] has as its target T1, recombinant human ALK5 (TGF-βR1) protein (Homo sapiens, UniProt P36897).
T1 construct: purchased Life Technologies PR9075A
T1 sequence (P36897 34-503): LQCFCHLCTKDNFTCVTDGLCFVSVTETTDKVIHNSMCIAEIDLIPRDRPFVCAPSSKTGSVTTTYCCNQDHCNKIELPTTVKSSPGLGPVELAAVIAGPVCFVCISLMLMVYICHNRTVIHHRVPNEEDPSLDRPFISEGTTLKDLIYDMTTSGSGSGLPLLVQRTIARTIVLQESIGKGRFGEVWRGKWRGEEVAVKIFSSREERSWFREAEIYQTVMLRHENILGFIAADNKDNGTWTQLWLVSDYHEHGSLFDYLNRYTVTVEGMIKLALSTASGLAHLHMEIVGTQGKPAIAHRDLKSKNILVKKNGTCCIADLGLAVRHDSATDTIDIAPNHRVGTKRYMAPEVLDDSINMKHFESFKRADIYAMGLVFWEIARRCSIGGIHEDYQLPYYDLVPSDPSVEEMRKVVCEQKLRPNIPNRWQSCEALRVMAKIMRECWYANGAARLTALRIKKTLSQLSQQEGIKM
The experiment in a line: Biochemical ALK5 (TGF-βR1) assay to measure pKi (LANCE Ultra ULight kinase assay). To be noted: apparent pKi from pIC50 by Cheng-Prusoff, read-out: ALK5 pKi (converted). Put shortly:
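Compounds (10 μM to 25 pM) were preincubated 60 min at room temperature with enzyme, then reactions were started with ATP (125 μM stock, 5× final) and run 60 min at 37 °C. EDTA-containing Eu-anti-phospho-Topo IIα (Thr1342) antibody stopped the reaction; TR-FRET read at 665 nm. pIC50 from 4-parameter fit, converted to pKi via Cheng-Prusoff.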

The test system of assay [2] is TGF-β-stimulated SMAD3 phosphorylation in BEAS-2B cells. Briefly: Cellular ALK5 potency assay, inhibition of TGF-β stimulated pSMAD3 formation in BEAS-2B cells. The following applies: Homo sapiens; inhibition of TGF-β stimulated pSMAD3 formation, BEAS-2B cells; read-out: BEAS2B pIC50 (converted). Format: cell-based. In outline:
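Potency is reported as pIC50, derived from concentration-dependent reduction of pSMAD3 AlphaLISA signal against TGF-β-stimulated cells without compound. BEAS-2B cells received compound for 1 h before a 30-min stimulation with 10 ng/mL TGF-β.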

On to `Cc1cccc(-c2[nH]cnc2-c2ccc3ncc(-c4cccc(C(=O)O[C@H]5CCNC5)c4)cc3c2)n1` [Compound 707, [(3S)-pyrrolidin-3-yl] 3-[6-[5-(6-methyl-2-pyridyl)-1H-imidazol-4-yl]-3-quinolyl]benzoate], for which the Ki in assay [1] is 0.0398 to 0.316 nM. Moreover, the IC50 in assay [2] was 25.1 to 158 nM.
Turning to `COC(=O)CC1CN(CCNc2cnc3ccc(-c4nc[nH]c4-c4cccc(C)n4)cc3c2)CCN1` (stereo not shown) [Compound 322, methyl 2-[4-[2-[[6-[5-(6-methyl-2-pyridyl)-1H-imidazol-4-yl]-3-quinolyl]amino]ethyl]piperazin-2-yl]acetate], the Ki in assay [1] was 0.0398 to 0.316 nM. Also, in assay [2], the IC50 was 200 to 1260 nM.
For the molecule `Cc1cccc(-c2nc3ncccn3c2-c2ccc3ncc(-c4cn[nH]c4)cc3n2)n1` [Compound 676, 2-(2-(6-methylpyridin-2-yl)imidazo[1,2-a]pyrimidin-3-yl)-7-(1H-pyrazol-4-yl)-1,5-naphthyridine], in assay [1], the Ki is 0.0398 to 0.316 nM. For the same molecule, the IC50 in assay [2] is 25.1 to 158 nM.
In the same order, the values of `Cc1nc(-c2n[nH]cc2-c2ccc3ncc(-c4[nH]nc5c4CCNC5)cc3n2)ccc1F` [Compound 7, 2-[3-(5-fluoro-6-methyl-2-pyridyl)-1H-pyrazol-4-yl]-7-(4,5,6,7-tetrahydro-2H-pyrazolo[3,4-c]pyridin-3-yl)-1,5-naphthyridine] are 0.0398 to 0.316 nM and 200 to 1260 nM.
On to `Cc1cccc(-c2[nH]ncc2-c2ccc3ncc(C(=O)OCCN4CCC[C@H](N)C4)cc3c2)n1` [Compound 1191, 2-[(3S)-3-amino-1-piperidyl]ethyl 6-[5-(6-methyl-2-pyridyl)-1H-pyrazol-4-yl]quinoline-3-carboxylate], for which the Ki in assay [1] is less than 0.0316 nM. For the same molecule, in assay [2], the IC50 was 25.1 to 158 nM.
In the same order, the values of `Cc1cccc(-c2[nH]cnc2-c2ccc3ncc(-c4csc(C(=O)OCCN5CCNCC5)c4)cc3c2)n1` [Compound 1242, 2-piperazin-1-ylethyl 4-[6-[5-(6-methyl-2-pyridyl)-1H-imidazol-4-yl]-3-quinolyl]thiophene-2-carboxylate] are less than 0.0316 nM and 25.1 to 158 nM.
For `Cc1cccc(-c2[nH]cnc2-c2ccc3ncc(C4=CCC(N)CC4)cc3c2)n1` (stereo not shown) [Compound 196, 4-[6-[5-(6-methyl-2-pyridyl)-1H-imidazol-4-yl]-3-quinolyl]cyclohex-3-en-1-amine], the Ki in assay [1] is less than 0.0316 nM. The IC50 in assay [2] was less than 20 nM.
As for `CNCCn1cc(-c2cnc3ccc(-c4c(-c5cccc(C)n5)nnn4Cc4ccccc4)nc3c2)cn1` [Compound 439, 2-[4-[6-[3-benzyl-5-(6-methyl-2-pyridyl)triazol-4-yl]-1,5-naphthyridin-3-yl]pyrazol-1-yl]-N-methyl-ethanamine], the Ki in assay [1] is 0.0398 to 0.316 nM. Moreover, the IC50 in assay [2] is 25.1 to 158 nM.
Regarding `Cc1nc(-c2n[nH]cc2-c2ccc3ncc(-c4cnn(CC5CNC5)c4)cc3n2)ccc1F` [Compound 474, 7-[1-(azetidin-3-ylmethyl)pyrazol-4-yl]-2-[3-(5-fluoro-6-methyl-2-pyridyl)-1H-pyrazol-4-yl]-1,5-naphthyridine], in assay [1], the Ki is less than 0.0316 nM. In addition, the IC50 in assay [2] was 25.1 to 158 nM.
Regarding `Cc1cccc(-c2[nH]cnc2-c2ccc3ncc(-c4csc(C(=O)OC[C@H]5CCCN5)c4)cc3c2)n1` [Compound 1219, [(2R)-pyrrolidin-2-yl]methyl 4-[6-[5-(6-methyl-2-pyridyl)-1H-imidazol-4-yl]-3-quinolyl]thiophene-2-carboxylate], the Ki in assay [1] is less than 0.0316 nM. Further, in assay [2], the IC50 was 25.1 to 158 nM.
`Cc1cccc(-c2[nH]cnc2-c2ccc3ncc(N4CC5(CNC5)C4)cc3c2)n1` [Compound 131, 3-(2,6-diazaspiro[3.3]heptan-2-yl)-6-[5-(6-methyl-2-pyridyl)-1H-imidazol-4-yl]quinoline]: the Ki in assay [1] is less than 0.0316 nM. In addition, the IC50 in assay [2] was 25.1 to 158 nM.
Take `Cc1nc(-c2n[nH]cc2-c2ccc3ncc(-c4nc5c([nH]4)CNCC5)cc3n2)ccc1F` [Compound 425, 2-[3-(5-fluoro-6-methyl-2-pyridyl)-1H-pyrazol-4-yl]-7-(4,5,6,7-tetrahydro-3H-imidazo[4,5-c]pyridin-2-yl)-1,5-naphthyridine]: the Ki in assay [1] is 0.0398 to 0.316 nM. In addition, in assay [2], the IC50 was 200 to 1260 nM.
Regarding `Cc1cccc(-c2n[nH]cc2-c2ccc3ncc(-c4cn(-c5ccccn5)nn4)cc3n2)n1` [Compound 680, 2-[3-(6-methyl-2-pyridyl)-1H-pyrazol-4-yl]-7-[1-(2-pyridyl)triazol-4-yl]-1,5-naphthyridine], in assay [1], the Ki is 0.398 to 3.16 nM. The IC50 in assay [2] was 200 to 1260 nM.
For `Cc1cccc(-c2nc3ccccn3c2-c2ccc3ncc(-c4cn[nH]c4)cc3n2)n1` [Compound 469, 2-(2-(6-methylpyridin-2-yl)imidazo[1,2-a]pyridin-3-yl)-7-(1H-pyrazol-4-yl)-1,5-naphthyridine], the Ki in assay [1] is 0.0398 to 0.316 nM. Moreover, the IC50 in assay [2] was less than 20 nM.
For `CC(=O)N[C@H]1CC=C(c2cnc3ccc(-c4nc[nH]c4-c4cccc(C)n4)cc3c2)CC1` [Compound 691, N-[(1R)-4-[6-[5-(6-methyl-2-pyridyl)-1H-imidazol-4-yl]-3-quinolyl]cyclohex-3-en-1-yl]acetamide], the Ki in assay [1] was less than 0.0316 nM. In addition, the IC50 in assay [2] is less than 20 nM.
In the same order, the values of `Cc1cccc(-c2n[nH]cc2-c2ccc3ncc(-c4c(C)nn5c4NCCC5)cc3n2)n1` [Compound 212, 2-[3-(6-methyl-2-pyridyl)-1H-pyrazol-4-yl]-7-(2-methyl-4,5,6,7-tetrahydropyrazolo[1,5-a]pyrimidin-3-yl)-1,5-naphthyridine] are 0.398 to 3.16 nM and 25.1 to 158 nM.
Turning to `Cc1cccc(-c2[nH]cnc2-c2ccc3ncc(NC4CCNC4)cc3c2)n1` (stereo not shown) [Compound 184, 6-[5-(6-methyl-2-pyridyl)-1H-imidazol-4-yl]-N-pyrrolidin-3-yl-quinolin-3-amine], the Ki in assay [1] was 0.0398 to 0.316 nM. In addition, in assay [2], the IC50 was 25.1 to 158 nM.
In the same order, the values of `Cc1cccc(-c2[nH]cnc2-c2ccc3ncc(N4CC5(CC(N)C5)C4)cc3c2)n1` [Compound 624, 2-[6-[5-(6-methyl-2-pyridyl)-1H-imidazol-4-yl]-3-quinolyl]-2-azaspiro[3.3]heptan-6-amine] are 0.0398 to 0.316 nM and 25.1 to 158 nM.
Take `Cc1cccc(-c2n[nH]cc2-c2ccc3ncc(NC4CCNCC4)cc3n2)n1` [Compound 113, 6-[3-(6-methyl-2-pyridyl)-1H-pyrazol-4-yl]-N-(4-piperidyl)-1,5-naphthyridin-3-amine]: the Ki in assay [1] was 0.0398 to 0.316 nM. Further, in assay [2], the IC50 is 200 to 1260 nM.
Regarding `Cc1cccc(-c2[nH]cnc2-c2ccc3ncc(NC(=O)C4CCNC4)cc3c2)n1` (stereo not shown) [Compound 618, N-[6-[5-(6-methyl-2-pyridyl)-1H-imidazol-4-yl]-3-quinolyl]pyrrolidine-3-carboxamide], in assay [1], the Ki was 0.0398 to 0.316 nM. The IC50 in assay [2] is 200 to 1260 nM.
`Cc1cccc(-c2[nH]ncc2-c2ccc3ncc(C(=O)OCCCCN4CCCC4)cc3n2)n1` [Compound 146, 4-pyrrolidin-1-ylbutyl 6-[5-(6-methyl-2-pyridyl)-1H-pyrazol-4-yl]-1,5-naphthyridine-3-carboxylate]: in assay [1], the Ki was 0.0398 to 0.316 nM. Moreover, the IC50 in assay [2] was 25.1 to 158 nM.
Consider `Cc1cccc(-c2[nH]cnc2-c2ccc3ncc(C4=CC[C@H](NC(=O)C5CCNCC5)CC4)cc3c2)n1` [Compound 370, N-[(1R)-4-[6-[5-(6-methyl-2-pyridyl)-1H-imidazol-4-yl]-3-quinolyl]cyclohex-3-en-1-yl]piperidine-4-carboxamide], for which the Ki in assay [1] is 0.0398 to 0.316 nM. In assay [2], the IC50 is 1580 to 10000 nM.
In the same order, the values of `Cc1cccc(-c2n[nH]cc2-c2ccc3ncc(N4CCCN(C5CCCC5)CC4)cc3n2)n1` [Compound 400, 7-(4-cyclopentyl-1,4-diazepan-1-yl)-2-[3-(6-methyl-2-pyridyl)-1H-pyrazol-4-yl]-1,5-naphthyridine] are 0.0398 to 0.316 nM and 200 to 1260 nM.
In the case of `Cc1cccc(-c2n[nH]cc2-c2ccc3ncc(N4CCC(N5CCCC5)CC4)cc3n2)n1` [Compound 335, 2-(3-(6-methylpyridin-2-yl)-1H-pyrazol-4-yl)-7-(4-(pyrrolidin-1-yl)piperidin-1-yl)-1,5-naphthyridine], in assay [1], the Ki was less than 0.0316 nM. The IC50 in assay [2] is 25.1 to 158 nM.
The like results for `CCN1CCN(c2cnc3ccc(-c4c[nH]nc4-c4cccc(C)n4)nc3c2)CC1` [Compound 390, 7-(4-ethylpiperazin-1-yl)-2-[3-(6-methyl-2-pyridyl)-1H-pyrazol-4-yl]-1,5-naphthyridine] were, in that order, 0.0398 to 0.316 nM and 25.1 to 158 nM.
Consider `Cc1cccc(-c2nc3ccccn3c2-c2ccc3ncc(-c4cnn5c4CNCC5)cc3n2)n1` [Compound 587, 2-(2-(6-methylpyridin-2-yl)imidazo[1,2-a]pyridin-3-yl)-7-(4,5,6,7-tetrahydropyrazolo[1,5-a]pyrazin-3-yl)-1,5-naphthyridine], for which the Ki in assay [1] is 0.0398 to 0.316 nM. For the same molecule, the IC50 in assay [2] is 25.1 to 158 nM.
